Data set [1] is classed as in vivo, CB17 SCID/SCID mice. The procedure: Treatments started on day fourteen after C33A cells transplantation. […]. The negative control group was treated with vehicle alone. […].
Observation continued for 40 days after initial tumor implantation.

Data set [2] deals with H1299 human non-small cell lung cancer cells. Briefly: Cell viability by cellular ATP levels (ViaLight), H1299 cells. Type of data set: cell-based. The following applies: Homo sapiens, NCI-H1299; H1299; cellular ATP levels as described in Example 2; read-out: IC50 (μM) H1299, Effect on Cancer Cells Viability. The source says:
(§1) […]. […] […]. The total dimethyl sulfoxide on the cells was 1%. […] […].
(§2) As depicted in Table 4, these compounds were efficient in decreasing cellular ATP levels in HI 299 and C33A cancer cell lines. Nevertheless, these compounds are believed to have utility in the in vivo methods of the invention, i.e., treatment and prevention of cancer and viral infections, respectively. It should be noted that, although this cell-based assay is believed to be indicative of anti-oncogenic activity in vivo, it is not the only useful assay for evaluating the anti-oncogenic activity of Triheterocyclic Compounds of the invention. In addition, the anti-viral and other biological activity of compounds of the invention can be determined and evaluated in other assay systems known to the skilled artisan.

The test system of data set [3] is C33A cervical carcinoma cells. As to the kind of experiment: cells. The class given is cell-based. The following applies: Homo sapiens, C-33-A; C33A; cellular ATP levels as described in Example 2; read-out: IC50 (μM) C33A, Effect on Cancer Cells Viability.
Text: as §1, §2

A short description of data set [4]: Shelf stability (precipitation) of formulation. The class given is physicochemical. The settings on record: 0.6 mg/mL in 9.6% polyethylene glycol 300, 0.4% polysorbate 20 and 5% dextrose.
Protocol: To determine whether a compound is soluble in a solution, the solution was filtered on 0.2 μM polytetrafluoroethylene filters (Whatman Inc. Clifton, N.J., USA) and the compound concentration in the filtrate was measured by LC/MS and compared to the expected concentration.
Data set [5] deals with human prostatic adenocarcinoma cancer PC3 cells. Briefly: Growth of PC3 prostatic tumors in SCID mice. The class given is in vivo. The following applies: 5 consecutive intravenous injections; Compound 1 Mesylate Salt 4.84 μMoles/Kg; Compound 66 4.84 or 14.51 μMoles/Kg; FIG. 6. The procedure: The human prostatic adenocarcinoma cancer PC3 cells were purchased from the American Type Culture Collection (ATCC). These cells were confirmed to be free of mycoplasma infection. Cells were maintained in the Roswell Park Memorial Institute (RPMI), supplemented with 10% inactivated fetal bovine serum and 1% penicillin-streptomycin-L-Glutamine, under 5% carbon dioxide (CO2) at 37° C. For prostatic-tumor induction, cells were grown lower than 70% confluence in complete medium and then collected with trypsin (Bio Whittaker, Rockland, Me., USA). Cells were then centrifuged and washed 2 times in phosphate buffer solution (PBS) and resuspended in PBS at 1.5×10^6 cells/0.1 mL. PC3 cells were then transplanted subcutaneously into the flank of SCID mice (Charles River Laboratories, Wilmington, Mass., USA), as a suspension of tumor cells (1.5×10^6 cells in 100 μL PBS), under a laminar airflow hood. Eleven (11) days later, the size of each tumor was measured. […] Relative tumor size and volume was calculated as follows: length (cm)×[width (cm)]^2/2. […]

Counter-ions that a name gives are not always drawn.

In general, IC50 refers to the concentration that inhibits the measured activity by half.

As to `N.N.[Cl][Pt][Cl]` [cisplatin, reference compound], the deaths entry in data set [1] (cisplatin 4 mg/kg IP, days 29 and 32) was “Two mice died”. The same compound showed a weight loss in data set [1] (day 29, cisplatin 4 mg/kg IP once every 3 days for five times) of 28%.
On to `COC1=CC(c2cc3ccccc3[nH]2)=N/C1=C\c1[nH]c(C)c(I)c1C` [Compound 2, 2-[5-(4-Iodo-3,5-dimethyl-1H-pyrrol-2-ylmethylene)-4-methoxy-5H-pyrrol-2-yl]-1H-indole], for which the results for the IC50 in data set [2] and in data set [3] were 0.53 µM and 0.65 µM, respectively.
Turning to `CCOC(=O)C(=O)c1c(C)[nH]c(/C=C2\N=C(c3[nH]c4ccccc4c3C(=O)C(=O)OCC)C=C2OC)c1C` [Compound 20, {2-[5-(4-Ethoxyoxalyl-3,5-dimethyl-1H-pyrrol-2-ylmethylene)-4-methoxy-5H-pyrrol-2-yl]-1H-indol-3-yl}-oxo-acetic acid ethyl ester], the results for the 50% inhibitory concentration (IC50) in data set [2] and in data set [3] were 7.98 µM and 7.23 µM, respectively.
In the case of `COc1cccc(COC2=CC(c3cc4ccccc4[nH]3)=N/C2=C\c2[nH]c(C)cc2C)c1` [Compound 51, 2-[5-(3,5-Dimethyl-1H-pyrrol-2-ylmethylene)-4-(3-methoxy-benzyloxy)-5H-pyrrol-2-yl]-1H-indole], the IC50 in data set [2] was 0.202 µM; in data set [3], 0.165 µM.
On to `COC1=CC(c2[nH]c3ccccc3c2C(=O)c2ccsc2)=N/C1=C\c1[nH]c(C)cc1C` [Compound 12, {2-[5-(3,5-Dimethyl-1H-pyrrol-2-ylmethylene)-4-methoxy-5H-pyrrol-2-yl]-1H-indol-3-yl}-thiophen-3-yl-methanone], for which the figures for the IC50 in data set [2] and in data set [3] were 2.95 µM and 3.6 µM, respectively.
On to `Cc1cc(C)c(/C=C2\N=C(c3cc4ccc(Cl)cc4[nH]3)C=C2OC(C)C)[nH]1` [Compound 46, 6-Chloro-2-[5-(3,5-dimethyl-1H-pyrrol-2-ylmethylene)-4-isopropoxy-5H-pyrrol-2-yl]-1H-indole], for which the concentration for half-maximal inhibition (IC50) was determined as 0.245 µM in data set [2] and 0.261 µM in data set [3].
Regarding `COC1=CC(c2cc3ccccc3n2C(=O)C(C)C)=N/C1=C\c1[nH]c(C)cc1C` [Compound 35, 1-{2-[5-(3,5-Dimethyl-1H-pyrrol-2-ylmethylene)-4-methoxy-5H-pyrrol-2-yI]-indol-1-yl}-2-methyl-propan-1-one], the IC50 was determined as 0.197 µM in data set [2] and 0.167 µM in data set [3].
Regarding `COC1=CC(c2cc3ccccc3n2C(=O)OC(C)(C)C)=N/C1=C\c1[nH]c(C)cc1C` [Compound 49, 2-[5-(3,5-Dimethyl-1H-pyrrol-2-ylmethylene)-4-methoxy-5H-pyrrol-2-yl]-indole-1-carboxylic acid tert-butyl ester], the concentration for half-maximal inhibition (IC50) came to 3 µM in data set [2] and 2 µM in data set [3].
As for `COC1=CC(c2cc3ccccc3[nH]2)=N/C1=C\c1[nH]c(C)c(CCCO)c1C` [Compound 41, 3-{5-[5-(1H-indol-2-yl)-3-methoxy-pyrrol-2-ylidenemethyl]-2,4-dimethyl-1H-pyrrol-3-yl}-propan-1-ol], the half-inhibitory concentration (IC50) in data set [2] came to 3.35 µM; in data set [3] it was 1.79 µM.
As for `COC1=CC(c2cc3ccccc3[nH]2)=N/C1=C\c1[nH]ccc1OC` [Compound 3, 2-[4-Methoxy-5-(3-methoxy-1H-pyrrol-2-ylmethylene)-5H-pyrrol-2-yl]-1H-indole], the results for the IC50 in data set [2] and in data set [3] were 0.3 µM and 0.52 µM, respectively.
`COC1=CC(c2cc3ccccc3n2C(=O)c2ccccc2)=N/C1=C/c1[nH]c(C)cc1C` [Compound 43, {2-[5-(3,5-Dimethyl-1H-pyrrol-2-ylmethylene)-4-methoxy-5H-pyrrol-2-yl]-indol-1-yl}-phenyl-methanone]: the half-maximal inhibitory concentration (IC50) worked out at 0.298 µM in data set [2] and 0.196 µM in data set [3].
`COC1=CC(c2cc3ccccc3[nH]2)=N/C1=C(\C)c1[nH]c(C)cc1C` [Compound 47, 2-{5-[1-(3,5-Dimethyl-1H-pyrrol-2-yl)-ethylidene]-4-methoxy-5H-pyrrol-2-yl)-1H-indole]: the IC50 is 9.65 µM in data set [2] and 8.28 µM in data set [3].
Consider `COC1=CC(c2cc3ccccc3n2C(=O)Nc2ccc(OCc3ccccc3)cc2)=N/C1=C\c1[nH]c(C)cc1C` [Compound 54, 2-[5-(3,5-Dimethyl-1H-pyrrol-2-ylmethylene)-4-methoxy-5H-pyrrol-2-yl]-indole-1-carboxylic acid (4-benzyloxy-phenyl)-amide], for which the IC50 came out at 0.187 µM in data set [2] and 0.145 µM in data set [3].
`CNCc1c(C2=N/C(=C\c3[nH]c(C)cc3C)C(OC)=C2CO)[nH]c2ccccc12` [Compound 10, [5-(3,5-Dimethyl-1H-pyrrol-2-ylmethylene)-4-methoxy-2-(3-methylaminomethyl-1H-indol-2-yl)-5H-pyrrol-3-yl]-methanol]: the concentration for half-maximal inhibition (IC50) stood at 0.493 µM in data set [2] and 0.25 µM in data set [3].
For `COC1=CC(c2cc3ccccc3n2C(=O)N(C)C)=N/C1=C\c1[nH]c(C)cc1C` [Compound 39, 2-[5-(3,5-Dimethyl-1H-pyrrol-2-ylmethylene)-4-methoxy-5H-pyrrol-2-yl]-indole-1-carboxylic acid dimethylamide], the IC50 in data set [2] came out at 5.67 µM; in data set [3], 2.95 µM.
As for `Cc1cc(C)c(/C=C2/N=C(c3cc4cc(F)ccc4[nH]3)C=C2OC(C)C)[nH]1` [Compound 42, 2-[5-(3,5-Dimethyl-1H-pyrrol-2-ylmeythylene)-4-isopropoxy-5H-pyrrol-2-yl]-5-fluoro-1H-indole], the half-maximal inhibitory concentration (IC50) was determined as 0.458 µM in data set [2] and 0.358 µM in data set [3].
With `COC1=CC(c2cc3cc(OC)ccc3[nH]2)=N/C1=C\c1[nH]c(C)cc1C` [Compound 15, 2-[5-(3,5-Dimethyl-1H-pyrrol-2-ylmethylene)-4-methoxy-5H-pyrrol-2-yl]-5-methoxy-1H-indole], the figures for the IC50 in data set [2] and in data set [3] were 0.935 µM and 1.44 µM, respectively.
Taken in the same sequence, the figures for `COC1=CC(c2cc3ccccc3n2C(=O)Nc2ccc(N(C)C)cc2)=N/C1=C\c1[nH]c(C)cc1C` [Compound 52, 2-[5-(3,5-Dimethyl-1H-pyrrol-2-ylmethylene)-4-methoxy-5H-pyrrol-2-yl]-indole-1-carboxylic acid (4-dimethylamino-phenyl)-amide] were 1.04 µM and 1.11 µM.
Take `COC1=CC(c2[nH]c3ccccc3c2I)=N/C1=C\c1[nH]c(C)c(I)c1C` [Compound 17, 3-Iodo-2-[5-(4-iodo-3,5-dimethyl-1H-pyrrol-2-ylmethylene)-4-methoxy-5H-pyrrol-2-yl]-1H-indole]: the 50% inhibitory concentration (IC50) in data set [2] turned out to be 5.37 µM; in data set [3], 5.69 µM.
Turning to `COC1=CC(c2cc3ccccc3[nH]2)=N/C1=C\c1[nH]c(C)cc1C` [Compound 1 Mesylate Salt], the precipitation of formulation entry in data set [4] is given as “no evidence of precipitation 72 hours after its preparation”. Moreover, the “growth of prostatic tumors in mice” value in data set [5] is “significantly reduce the growth of prostatic tumors”.
Consider `COC1=CC(c2cc3ccccc3n2Cc2ccc(O)cc2)=N/C1=C\c1[nH]c(C)cc1C` [Compound 58, 4-{2-(5-(3,5-Dimethyl-1H-pyrrol-2-ylmethylene)-4-methoxy-5H-pyrrol-2-yl]-indol-1-ylmethyl}-phenol], for which the concentration for half-maximal inhibition (IC50) in data set [2] came out at 1.97 µM; in data set [3], 1.32 µM.
